Experimental findings from patent US7183394B1, “Helical nucleopeptides” (priority 2000, dated 2007) are described below.

Holding throughout (type): binding
In one test the test system is d(TA3G5A3T). The experiment in a line: Thermal denaturation (Tm) of complex with d(TA3G5A3T). As to conditions: for Tm (cooling) / Tm (heating): Table 3, N-4-(cyclohexyl)butyryl cap. On the procedure:
The α-helical secondary structure (˜26%) of these backbone 1 αPNAs in the absence of DNA was confirmed by circular dichroism (CD) studies in H2O. Both the N-terminal linked (b1) and C-terminal-linked (b1′) cysteine dimers formed complexes with d(A10) in H2O (Table 1, entries 1 and 2). […] The homothymine b1αPNAs required a relatively long incubation period (up to 4 days at 4° C. until constant absorbance was reached) due to the slow kinetics of annealing.
(§1) (Cf. Corey, D. R. J. Am. Chem. Soc. 1995, 117, 9373–9374). […] Even the T5(b2) module hybridized with d(A10) (SEQ ID NO.: 2)—albeit weakly as expected for a complex held together by only A•T base pairs (entry 5). […] This implies that equilibration is being achieved during the cooling cycle. This Tm is 20° C. higher than that of C5(b1)•d(TA3G5A3T) in H2O (compare entries 6 and 7) and 35° C. higher than the corresponding DNA•DNA duplex (in TE-buffer+150 mM NaCl). […] (Marky, L. A.; Breslauer, K. J. Biopolymers 1987, 26, 1601–1620). Added salt was expected to disrupt favorable charge—charge interactions between cationic αPNAs and anionic DNA.
(§2) This reduction in melting temperature presumably arises from residual hydration of the mismatched nucleobases and provides additional support for our proposed Watson-Crick binding model.

Test [1] relates to d(A3GGAGGA3). The experiment in a line: Thermal denaturation (Tm) of complex with d(A3GGAGGA3). On the procedure:
as §1, §2

Test [2] concerns d(A3AGGAGA3). The experiment in a line: Thermal UV denaturation (Tm), antiparallel target d(A3AGGAGA3). The note with it: antiparallel N/3′; 5 μM each in TE buffer pH 7, incubated overnight at 4° C. The protocol: (§3) The N-caps investigated consisted of a series of arenyl and aliphatic carboxylic acids. […] Thermal UV denaturation (Tm) data for the equilibria between N-cap-CTCCT and d(A3GAGGAA3) (SEQ. ID NO.: 5) (N/5′ or parallel orientation) and N-cap-CTCCT and d(A3AGGAGA3) (SEQ. ID NO.: 4) (N/3′ or antiparallel orientation) are collected in Table 2. Thermal UV denaturation curves were obtained with sample solutions made by combining the N-capped (αPNA and ssDNA components (5 μM each) in TE buffer (10 mM Tris-HCl, 1 mM EDTA, pH 7). These solutions were then incubated overnight at 4° C.

A further test relates to d(A3GAGGAA3). The experiment in a line: Thermal UV denaturation (Tm), parallel target d(A3GAGGAA3). As to conditions: for Tm (cooling) / Tm (heating): parallel N/5′, 5 μM each in TE buffer pH 7, incubated overnight at 4° C. The protocol:
as §3

Test [3] has as its system d(A3GGAGGA3). The experiment in a line: CD titration (Job plot) with d(A3GGAGGA3). The note with it: 258 nm, 5° C., total concentration 12 μM, water. On the procedure: Spectra were recorded at 5° C. using a JASCO J-600 CD spectro-polarimeter. Samples having a total concentration ([αPNA]+[DNA]) of 12 μM were made up in doubly deionized water and placed in a stoppered optical quartz cell (1 cm pathlength). Dry air was purged through the sample compartment. Each data point represents the average of eight (baseline corrected) points. […] This is in line with the PAGE experiment with T5(b2)-dimer and d(C3T(TC2)2A10C(TC2)3) (SEQ. ID NO.: 6).

Test [4] deals with d(A3AGGAGA3). The experiment in a line: Thermal UV denaturation (Tm), antiparallel target d(A3AGGAGA3). As to conditions: Table 1; antiparallel (N/3′) orientation.
[5] abbreviates: Table 3, N-4-(cyclohexyl)butyryl cap.

Turning to “4-cyclohexylbutyryl-CCTCC [C6H11(CH2)3CO-CCT CC]”, the “Tm (cooling)” value in the test on d(TA3G5A3T) worked out at 46 °C; in the test with d(A3GGAGGA3) [1] (setting [5]), 51 °C. Besides, the “Tm (heating)” value came to 50 °C with d(TA3G5A3T); 60 °C in the test on d(A3GGAGGA3) [1] (setting [5]); 60.8 °C in the test with d(A3GGAGGA3) [1] (Table 3, N-4-(cyclohexyl)butyryl cap, listed as N-4-(cyclohexyl)butyryl-CCTCC). For the same substance, in the test with d(TA3G5A3T) (mismatched complex), the “lowering of Tm (cooling) by a single base-pair mismatch” value was found to be 10 °C. The “lowering of Tm (heating) by a single base-pair mismatch” value with d(TA3G5A3T) (mismatched complex) came out at 15 °C.
As for “3-cyclopentylpropionyl-CTCCT [C5H9CH2CH2CO]”, in the test on d(A3AGGAGA3) [2], the “Tm (heating)” value stood at 33.8 °C. For the same substance, in the test on d(A3GAGGAA3), the “Tm (cooling)” value is 38.2 °C and the “Tm (heating)” value came to 43.7 °C.
Consider “4-cyclohexylbutyryl-CTCCT [C6H11CH2CH2CH2CO]”, for which the “Tm (heating)” value in the test on d(A3AGGAGA3) [2] worked out at 33.4 °C. Further, in the test with d(A3GAGGAA3), the “Tm (cooling)” value came to 43.7 °C and the “Tm (heating)” value was determined as 47.9 °C. Besides, the “Tm increase compared to the parent N-acetylated αPNA” value in the test with d(A3GAGGAA3) (parallel, heating, cooling) is 11–12 °C.
On to “4-(p-nitrophenyl)butyryl-CTCCT [p-NO2C6H4(CH2)3CO]”, for which the “Tm (heating)” value in the test with d(A3AGGAGA3) [2] came to 34.4 °C. Moreover, in the test with d(A3GAGGAA3), the “Tm (cooling)” value was found to be 37.8 °C and the “Tm (heating)” value was 41.6 °C.
For 4-phenylbutyryl-CTCCT [C6H5(CH2)3CO], in that order: 33.6 °C, 38.5 °C and 41.8 °C.
Taken in the same sequence, the figures for “4-(p-methoxyphenyl)butyryl-CTCCT [p-MeOC6H4(CH2)3CO]” were 34.2 °C, 37.0 °C and 41.3 °C.
For “4-(2-naphthyl)butyryl-CTCCT [2-naphthyl(CH2)3CO]”, in that order: 36.3 °C, 40.0 °C and 42.7 °C.
In the case of n-butyryl-CTCCT [CH3CH2CH2CO], the “Tm (heating)” value was found to be 30.2 °C with d(A3AGGAGA3) [2] and 40.0 °C in the test on d(A3GAGGAA3). Also, the “Tm (cooling)” value in the test on d(A3GAGGAA3) is 36.7 °C.
The term Tm denotes the temperature at which the thermal transition is half complete. Consider “Ac-Cys^Acm-Lys-(Ser^C-Ala2-Lys)2-Ser^T-(Ala2-Lys-Ser^C)2-Gly-Lys-NH2 [CCTCC(b2)]”, for which the Tm in the test with d(TA3G5A3T) (TE-buffer) was 38 °C; with d(A3GGAGGA3) [1] (Table 1), 49 °C; in the test with d(A3GAGGAA3) (Table 1, parallel (N/5′) orientation) it was 37 °C; with d(A3AGGAGA3) [4], 32 °C. Also, in the test with d(A3GGAGGA3) [3], the CD intensity minimum was determined as 50 mol % αPNA.
For the substance “4-cyclohexylbutyryl-CCCCC [C6H11(CH2)3CO-CCC CC]”, in the test with d(TA3G5A3T), the “Tm (cooling)” value came out at 66 °C and the “Tm (heating)” value was found to be 65 °C. Also, in the test with d(TA3G5A3T) (listed as N-4-(cyclohexyl)butyryl-CCCCC), the “Tm (heating)” value is 64.9 °C.
As to n-hexanoyl-CTCCT [CH3CH2CH2CH2CH2CO], the “Tm (heating)” value stood at 33.4 °C with d(A3AGGAGA3) [2] and 41.0 °C in the test on d(A3GAGGAA3). In addition, the “Tm (cooling)” value in the test with d(A3GAGGAA3) is 35.0 °C.
In the case of “4-(1-pyrenyl)butyryl-CTCCT [1-pyrenyl(CH2)3CO]”, the “Tm (heating)” value with d(A3AGGAGA3) [2] was 39.0 °C; in the test on d(A3GAGGAA3), 42.6 °C. Moreover, in the test with d(A3GAGGAA3), the “Tm (cooling)” value amounted to 43.8 °C.
